We go through 4 compounds from patent US20230265151A1, “GIP/GLP1 CO-AGONIST COMPOUNDS” (priority 2020, published 2023).

Common to all, as to format: cell-based
In one experiment the target is T1, hGIPR (Homo sapiens, UniProt P48546).
T1 construct: expressed in transfected cells
T1 sequence (P48546 22-466): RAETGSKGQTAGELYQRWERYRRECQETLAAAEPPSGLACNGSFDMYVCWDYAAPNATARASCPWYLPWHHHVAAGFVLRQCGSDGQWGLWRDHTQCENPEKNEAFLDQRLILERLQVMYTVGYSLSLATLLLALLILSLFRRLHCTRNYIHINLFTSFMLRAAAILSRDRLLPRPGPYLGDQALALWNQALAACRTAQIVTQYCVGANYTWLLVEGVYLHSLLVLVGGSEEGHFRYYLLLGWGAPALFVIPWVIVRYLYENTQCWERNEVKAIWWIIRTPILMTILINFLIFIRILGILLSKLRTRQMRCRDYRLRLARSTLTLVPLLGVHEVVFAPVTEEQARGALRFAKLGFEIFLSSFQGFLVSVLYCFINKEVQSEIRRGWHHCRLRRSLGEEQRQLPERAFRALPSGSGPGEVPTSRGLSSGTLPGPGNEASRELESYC
The experiment is described as follows: Functional cAMP formation (HTRF) in HEK-293 clonal cells expressing hGIPR, 0.1% bovine casein, without or with 1.0% human serum albumin. The following applies: for EC50: geometric mean, read-out: hGIPR EC50, nM (SEM, n). The gist of the method:
(§1)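 Cells were stimulated with peptide for 30 min at 37° C, then lysed in buffer carrying cAMP-d2 and anti-cAMP Eu3+-cryptate for a competitive HTRF read after at least 60 min at room temperature. The 665/620 nm ratio was converted to nM cAMP against a standard curve.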

The target in the next experiment is T2, hGCGR (Homo sapiens, UniProt P47871).
T2 construct: expressed in transfected cells
The experiment is described as follows: Functional cAMP formation (HTRF) in HEK-293 clonal cells expressing hGCGR, 0.1% bovine casein, without or with 1.0% human serum albumin. The gist of the method:
as §1

Another experiment addresses hGLP-1R (Homo sapiens, UniProt P43220). As to the kind of experiment: Functional cAMP formation (HTRF) in HEK-293 clonal cells expressing hGLP-1R, 0.1% bovine casein, without or with 1.0% human serum albumin. More on the design: expressed in transfected cells. The gist of the method: as §1
[1] abbreviates: HEK293, 0.1% bovine casein and 1.0% human serum albumin, 37° C., percent of maximal response to GIP(1-42)NH2, read-out: hGIPR Emax, % ± SEM.
[2] abbreviates: HEK293, percent of maximal response to GIP(1-42)NH2, 37° C., 0.1% bovine casein, arithmetic mean, read-out: hGIPR Emax, % ± SEM.
Where [3] appears, read: cAMP, incubated at 37° C., 0.1% bovine casein (no human serum albumin).
The mark [4] stands for this setting: 0.1% bovine casein and 1.0% human serum albumin, 37° C., geometric mean, read-out: hGCGR EC50, nM (SEM, n).
[5] abbreviates: cAMP, incubated at 37° C., 0.1% bovine casein (no human serum albumin), geometric mean, read-out: hGCGR EC50, nM (SEM, n).
The mark [6] stands for this setting: cAMP, incubated at 37° C., 0.1% bovine casein (no human serum albumin), geometric mean, read-out: hGLP-1R EC50, nM (SEM, n).

Molecules are shown by their SMILES. Like-named read-outs stand apart in the source and are kept apart here.

Sequence of hGLP-1R (P43220 24-463): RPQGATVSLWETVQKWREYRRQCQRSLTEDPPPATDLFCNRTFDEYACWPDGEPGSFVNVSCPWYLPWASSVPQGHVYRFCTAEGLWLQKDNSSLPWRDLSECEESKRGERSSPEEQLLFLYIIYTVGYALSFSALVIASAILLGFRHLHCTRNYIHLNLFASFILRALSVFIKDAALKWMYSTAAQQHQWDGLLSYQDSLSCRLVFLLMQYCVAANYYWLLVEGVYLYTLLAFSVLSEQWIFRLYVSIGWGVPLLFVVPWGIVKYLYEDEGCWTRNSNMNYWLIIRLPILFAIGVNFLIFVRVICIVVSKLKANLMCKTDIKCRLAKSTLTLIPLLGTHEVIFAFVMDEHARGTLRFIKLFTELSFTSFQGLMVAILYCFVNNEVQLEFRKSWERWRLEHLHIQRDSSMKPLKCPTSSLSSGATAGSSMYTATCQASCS
T2 sequence (P47871 26-477): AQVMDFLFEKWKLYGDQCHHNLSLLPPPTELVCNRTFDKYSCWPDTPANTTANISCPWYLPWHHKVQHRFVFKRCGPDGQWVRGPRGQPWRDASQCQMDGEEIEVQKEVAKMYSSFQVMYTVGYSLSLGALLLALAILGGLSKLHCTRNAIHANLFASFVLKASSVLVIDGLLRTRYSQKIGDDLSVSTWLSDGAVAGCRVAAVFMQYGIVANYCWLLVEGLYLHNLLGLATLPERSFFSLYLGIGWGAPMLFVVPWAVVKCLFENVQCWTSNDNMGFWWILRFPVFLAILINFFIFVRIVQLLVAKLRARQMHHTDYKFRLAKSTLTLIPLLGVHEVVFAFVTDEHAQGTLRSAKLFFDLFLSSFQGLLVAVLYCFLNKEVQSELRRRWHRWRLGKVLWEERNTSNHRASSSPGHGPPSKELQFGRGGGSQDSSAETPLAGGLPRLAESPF

`CC[C@H](C)[C@H](NC(=O)[C@H](CCCN)NC(=O)[C@H](CC(=O)O)NC(=O)[C@H](CC(C)C)NC(=O)[C@](C)(CC(C)C)NC(=O)[C@@H](NC(=O)[C@H](CO)NC(=O)[C@H](Cc1ccncc1)NC(=O)[C@H](CC(=O)O)NC(=O)[C@H](CO)NC(=O)[C@@H](NC(=O)[C@](C)(Cc1ccccc1F)NC(=O)[C@@H](NC(=O)CNC(=O)[C@H](CCC(=O)O)NC(=O)C(C)(C)NC(=O)[C@@H](N)Cc1ccc(O)cc1)[C@@H](C)O)[C@@H](C)O)[C@@H](C)CC)C(=O)N[C@@H](C)C(=O)N[C@@H](CCC(N)=O)C(=O)NC(C)(C)C(=O)N[C@@H](CCCCNC(=O)COCCOCCNC(=O)COCCOCCNC(=O)CC[C@H](NC(=O)CCCCCCCCCCCCC(=O)O)C(=O)O)C(=O)N[C@@H](Cc1ccccc1)C(=O)N[C@H](C(=O)N[C@H](CCC(=O)O)C(=O)N[C@@](C)(Cc1ccc(O)cc1)C(=O)N[C@@H](CC(C)C)C(=O)N[C@H](C(=O)N[C@@H](CCC(=O)O)C(=O)NCC(=O)NCC(=O)N[C@@H](CCCCNC(=O)COCCOCCNC(=O)COCCOCCNC(=O)CC[C@H](NC(=O)CCCCCCCCCCCCC(=O)O)C(=O)O)C(=O)N[C@@H](CO)C(=O)N[C@@H](CO)C(=O)NCC(=O)N[C@@H](C)C(=O)N1CCC[C@H]1C(=O)N1CCC[C@H]1C(=O)N1CCC[C@H]1C(=O)N[C@@H](CO)C(N)=O)[C@@H](C)CC)[C@@H](C)CC` [Example 74]: the EC50 on hGIPR (0.1% bovine casein and 1.0% human serum albumin, 37° C.) is 2.19 nM; at hGIPR (setting [3]), 0.0156 nM; at hGCGR (setting [4]) it was more than 9950 nM; at hGCGR (setting [5]) it was more than 9950 nM; on hGLP-1R (0.1% bovine casein and 1.0% human serum albumin, 37° C., geometric mean, read-out: hGLP-1R EC50, nM (SEM, n)), 59.5 nM; at hGLP-1R (setting [6]) it was 0.334 nM. The Emax was found to be 86.7% on hGIPR (setting [1]) and 93.3 ± 2.89% on hGIPR (setting [2]).

For `CC[C@H](C)[C@H](NC(=O)[C@H](CC(C)C)NC(=O)[C@](C)(Cc1ccc(O)cc1)NC(=O)[C@@H](CCC(=O)O)NC(=O)[C@@H](NC(=O)[C@H](Cc1ccccc1)NC(=O)[C@H](CCC(=O)O)NC(=O)C(C)(C)NC(=O)[C@H](CCC(N)=O)NC(=O)[C@H](C)NC(=O)[C@H](CCCCNC(=O)COCCOCCNC(=O)COCCOCCNC(=O)CC[C@H](NC(=O)CCCCCCCCCCCCC(=O)O)C(=O)O)NC(=O)[C@H](CCCN)NC(=O)[C@H](CC(=O)O)NC(=O)[C@H](CC(C)C)NC(=O)[C@](C)(CC(C)C)NC(=O)[C@@H](NC(=O)C(C)(C)NC(=O)[C@H](Cc1ccncc1)NC(=O)[C@H](CC(=O)O)NC(=O)[C@H](CO)NC(=O)[C@@H](NC(=O)[C@](C)(Cc1ccccc1F)NC(=O)[C@@H](NC(=O)CNC(=O)[C@H](CCC(=O)O)NC(=O)C(C)(C)NC(=O)[C@@H](N)Cc1ccc(O)cc1)[C@@H](C)O)[C@@H](C)O)[C@@H](C)CC)[C@@H](C)CC)C(=O)N[C@@H](CCC(=O)O)C(=O)NCC(=O)NCC(=O)N[C@@H](CCCCNC(=O)COCCOCCNC(=O)COCCOCCNC(=O)CC[C@H](NC(=O)CCCCCCCCCCCCC(=O)O)C(=O)O)C(=O)N[C@@H](CO)C(=O)N[C@@H](CO)C(=O)NCC(=O)N[C@@H](C)C(=O)N1CCC[C@H]1C(=O)N1CCC[C@H]1C(=O)N1CCC[C@H]1C(=O)N[C@@H](CO)C(N)=O` [Example 89], the Emax is 94.2% on hGIPR (setting [1]) and 88.9 ± 3.76% at hGIPR (setting [2]). Further, the EC50 was 0.0301 nM on hGIPR (setting [3]), more than 9950 nM at hGCGR (setting [4]), more than 9950 nM on hGCGR (setting [5]) and 1.03 nM at hGLP-1R (setting [6]).

With `CC[C@H](C)[C@H](NC(=O)[C@H](CC(C)C)NC(=O)[C@](C)(Cc1ccc(O)cc1)NC(=O)[C@@H](CCC(=O)O)NC(=O)[C@@H](NC(=O)[C@H](Cc1ccccc1)NC(=O)[C@H](CCC(=O)O)NC(=O)C(C)(C)NC(=O)[C@H](CCC(N)=O)NC(=O)[C@H](C)NC(=O)[C@H](CCCCNC(=O)COCCOCCNC(=O)COCCOCCNC(=O)CCCCCCCCCCCCC(=O)O)NC(=O)[C@H](CCCN)NC(=O)[C@H](CC(=O)O)NC(=O)[C@H](CC(C)C)NC(=O)[C@](C)(CC(C)C)NC(=O)[C@@H](NC(=O)C(C)(C)NC(=O)[C@H](Cc1ccc(O)cc1)NC(=O)[C@H](CC(=O)O)NC(=O)[C@H](CO)NC(=O)[C@@H](NC(=O)[C@](C)(Cc1ccccc1F)NC(=O)[C@@H](NC(=O)CNC(=O)[C@H](CCC(=O)O)NC(=O)C(C)(C)NC(=O)[C@@H](N)Cc1ccc(O)cc1)[C@@H](C)O)[C@@H](C)O)[C@@H](C)CC)[C@@H](C)CC)C(=O)N[C@@H](CCCCNC(=O)COCCOCCNC(=O)COCCOCCNC(=O)CCCCCCCCCCCCC(=O)O)C(=O)NCC(=O)NCC(=O)N1CCC[C@H]1C(=O)N[C@@H](CO)C(=O)N[C@@H](CO)C(=O)NCC(=O)N[C@@H](C)C(=O)N1CCC[C@H]1C(=O)N1CCC[C@H]1C(=O)N1CCC[C@H]1C(=O)N[C@@H](CO)C(N)=O` [Example 388], the maximal effect (Emax) was found to be 82.1% on hGIPR (HEK293, cAMP, 37° C., 0.1% bovine casein and 1.0% human serum albumin, percent of maximal response to GIP(1-42)NH2, read-out: hGIPR Emax, % ± SEM); 98.3% at hGIPR (HEK293, cAMP, 37° C., 0.1% bovine casein, percent of maximal response to GIP(1-42)NH2, arithmetic mean, read-out: hGIPR Emax, % ± SEM); 95.4% at hGLP-1R (HEK293, cAMP, 37° C., 0.1% bovine casein, percent of maximal response to GLP-1(7-36)NH2, arithmetic mean, read-out: hGLP-1R Emax, % ± SEM). Also, the EC50 at hGIPR (cAMP, 37° C., 0.1% bovine casein (no human serum albumin)) was 0.0103 nM; at hGCGR (cAMP, 37° C., 0.1% bovine casein (no human serum albumin), geometric mean, read-out: hGCGR EC50, nM (SEM, n)) it was more than 9950 nM; at hGCGR (cAMP, 37° C., 0.1% bovine casein and 1.0% human serum albumin, geometric mean (SEM, n), read-out: hGCGR EC50, nM (SEM, n)), more than 9950 nM; on hGLP-1R (cAMP, 37° C., 0.1% bovine casein (no human serum albumin), geometric mean, read-out: hGLP-1R EC50, nM (SEM, n)) it was 0.292 nM; on hGLP-1R (cAMP, 37° C., 0.1% bovine casein and 1.0% human serum albumin, geometric mean (SEM, n), read-out: hGLP-1R EC50, nM (SEM, n)) it was 6.31 nM.

As for `CC[C@H](C)[C@H](NC(=O)[C@H](CC(C)C)NC(=O)[C@](C)(Cc1ccc(O)cc1)NC(=O)[C@H](CCCCNC(=O)COCCOCCNC(=O)COCCOCCNC(=O)CC[C@H](NC(=O)CCCCCCCCCCCCC(=O)O)C(=O)O)NC(=O)[C@@H](NC(=O)[C@H](Cc1ccccc1)NC(=O)[C@H](CCC(=O)O)NC(=O)C(C)(C)NC(=O)[C@H](CCC(N)=O)NC(=O)[C@H](C)NC(=O)[C@H](CCCCNC(=O)COCCOCCNC(=O)COCCOCCNC(=O)CC[C@H](NC(=O)CCCCCCCCCCCCC(=O)O)C(=O)O)NC(=O)[C@H](CCCN)NC(=O)[C@H](CC(=O)O)NC(=O)[C@H](CC(C)C)NC(=O)[C@](C)(CC(C)C)NC(=O)[C@@H](NC(=O)[C@H](CO)NC(=O)C1(NC(=O)[C@H](CC(=O)O)NC(=O)[C@H](CO)NC(=O)[C@@H](NC(=O)[C@](C)(Cc2ccccc2F)NC(=O)[C@@H](NC(=O)CNC(=O)[C@H](CCC(=O)O)NC(=O)C(C)(C)NC(=O)[C@@H](N)Cc2ccc(O)cc2)[C@@H](C)O)[C@@H](C)O)CCCC1)[C@@H](C)CC)[C@@H](C)CC)C(=O)N[C@@H](CCC(=O)O)C(=O)NCC(=O)NCC(=O)N1CCC[C@H]1C(=O)N[C@@H](CO)C(=O)N[C@@H](CO)C(=O)NCC(=O)N[C@@H](C)C(=O)N1CCC[C@H]1C(=O)N1CCC[C@H]1C(=O)N1CCC[C@H]1C(=O)N[C@@H](CO)C(N)=O` [Example 116], the maximal response (Emax) at hGIPR (HEK293, read-out: hGIPR Emax, % ± SEM, percent of maximal response to GIP(1-42)NH2, 37° C., 0.1% bovine casein, arithmetic mean) amounted to 115%. Further, the half-maximal effective concentration (EC50) on hGCGR (hGCGR EC50, nM (SEM, n), cAMP, incubated at 37° C., 0.1% bovine casein (no human serum albumin), geometric mean) was more than 9950 nM; at hGLP-1R (hGLP-1R EC50, nM (SEM, n), cAMP, incubated at 37° C., 0.1% bovine casein (no human serum albumin), geometric mean), 0.197 nM.
